The results in this text go back to ChEMBL document CHEMBL1137369, “New orally active derivatives of artemisinin with high efficacy against multidrug-resistant malaria in mice” (J Med Chem, 2006).

In series [1] the test system is Plasmodium yoelii nigeriensis. In words: Antimalarial activity against multidrug-resistant Plasmodium yoelii nigeriensis infected Swiss mice (Mus musculus) at 48 mg/kg peroral dose over 4 days. The following applies: route oral. Type of series: functional.
The subject of series [2] is Plasmodium yoelii nigeriensis. In words: Antimalarial activity as cures against multidrug-resistant Plasmodium yoelii nigeriensis infected Swiss mice (Mus musculus) at 48 mg/kg peroral dose over 4 days. It counts as functional. As to conditions: route oral.
Series [3] deals with Plasmodium yoelii nigeriensis. In words: Antimalarial activity against multidrug-resistant Plasmodium yoelii nigeriensis infected Swiss mice (Mus musculus) at 12 mg/kg peroral dose over 4 days. It counts as functional. The following applies: route oral.
The test system of series [4] is Plasmodium yoelii nigeriensis. In words: Antimalarial activity against multidrug-resistant Plasmodium yoelii nigeriensis infected Swiss mice (Mus musculus) at 6 mg/kg peroral dose over 4 days. It counts as functional. The following applies: route oral.
Series [5] can be described thus: Lipophilicity, Log P of the compound. Type of series: physicochemical. As to conditions: octanol/water.
The nature of series [6]: Protection of Swiss mice (Mus musculus) infected with Plasmodium yoelii nigeriensis at 48 mg/kg, perorally for 4 days. It counts as functional. The following applies: route oral.

In the case of `C[C@H]1[C@@H](OCC2c3ccccc3-c3ccccc32)O[C@@H]2C[C@@]3(C)CC[C@H]4[C@H](C)CC[C@@H]1[C@@]24OO3`, the Activity in series [1] came to 100%; in series [2] it was 100%; in series [3], 100%; in series [4] it was 92.95%. In addition, in series [5], the logP came out at 6.75.
As to `C[C@H]1[C@@H](OCCOc2ccc(-c3ccccc3)cc2)O[C@@H]2C[C@@]3(C)CC[C@H]4[C@H](C)CC[C@@H]1[C@@]24OO3`, the Activity in series [1], in series [2], in series [3] and in series [6] was 100% throughout. Moreover, the logP in series [5] was 6.85.
Consider `C[C@H]1[C@@H](OCCC23CC4CC(CC(C4)C2)C3)O[C@@H]2O[C@@]3(C)CC[C@H]4[C@H](C)CC[C@@H]1[C@@]24OO3`, for which the Activity in series [1] was determined as 100%; in series [2], 100%; in series [6], 60%. The logP in series [5] amounted to 6.29.
Consider `C[C@H]1[C@H](OCc2ccc(-c3ccccc3)cc2)O[C@@H]2O[C@@]3(C)CC[C@H]4[C@H](C)CC[C@@H]1[C@@]24OO3`, for which the Activity in series [1] is recorded as 100%; in series [2] it was 100%; in series [3], 100%; in series [4], 86.33%. In series [5], the logP was 6.91.
As to `C[C@@H]1CC[C@H]2[C@@H](C)C(OCC34CC5CC(CC(C5)C3)C4)O[C@@H]3O[C@@]4(C)CC[C@@H]1[C@]32OO4` (stereo not given in full), the Activity in series [1], in series [2], in series [3] and in series [6] was 100% in each case. For the same compound, the logP in series [5] stood at 6.02.
On to `C[C@H]1[C@@H](OCCc2ccc(-c3ccccc3)cc2)O[C@@H]2O[C@@]3(C)CC[C@H]4[C@H](C)CC[C@@H]1[C@@]24OO3`, for which the Activity in series [1], in series [2], in series [3] and in series [6] was 100% each time. This compound also showed a log partition coefficient (logP) in series [5] of 7.19.
As to `C[C@@H]1CC[C@H]2[C@@H](C)C(OC3C4CC5CC(C4)CC3C5)O[C@@H]3O[C@@]4(C)CC[C@@H]1[C@]32OO4` (stereo not given in full), the Activity in series [1], in series [2], in series [3] and in series [6] was 100% in each case. Moreover, in series [5], the logP is 5.51.
Take `C[C@H]1[C@@H](OCCOc2ccccc2-c2ccccc2)O[C@@H]2C[C@@]3(C)CC[C@H]4[C@H](C)CC[C@@H]1[C@@]24OO3`: the Activity in series [1] and in series [2] was 100% each time. The same compound returned a logP in series [5] of 6.85.
As for `C[C@H]1[C@H](OCCC23CC4CC(CC(C4)C2)C3)O[C@@H]2O[C@@]3(C)CC[C@H]4[C@H](C)CC[C@@H]1[C@@]24OO3`, the Activity was 100% in series [1], 100% in series [2], 97.43% in series [3] and 61.25% in series [4]. For the same compound, the logP in series [5] turned out to be 6.29.
As for `C[C@@H]1CC[C@H]2[C@@H](C)C(OCCC3c4ccccc4-c4ccccc43)O[C@@H]3C[C@@]4(C)CC[C@@H]1[C@]32OO4` (stereo not given in full), the Activity in series [1], in series [2], in series [3] and in series [6] was 100% in each case. Moreover, the logP in series [5] amounted to 7.1.
For `C[C@H]1[C@@H](OCCC2C3CC4CC(C3)CC2C4)O[C@@H]2O[C@@]3(C)CC[C@H]4[C@H](C)CC[C@@H]1[C@@]24OO3` (stereo not given in full), the Activity in series [1], in series [2] and in series [6] was 100% throughout. The compound further showed a logP in series [5] of 6.15.
For `C[C@H]1[C@@H](OCc2ccccc2-c2ccccc2)O[C@@H]2O[C@@]3(C)CC[C@H]4[C@H](C)CC[C@@H]1[C@@]24OO3`, the Activity in series [1], in series [2], in series [3] and in series [6] was 100% throughout. The same compound registered a logP in series [5] of 6.91.
With `C[C@H]1[C@H](OCC2c3ccccc3-c3ccccc32)O[C@@H]2C[C@@]3(C)CC[C@H]4[C@H](C)CC[C@@H]1[C@@]24OO3`, the Activity in series [1], in series [2] and in series [3] was 100% each time. This compound registered a logP in series [5] of 6.75.
`C[C@H]1[C@H](OCCC2C3CC4CC(C3)CC2C4)O[C@@H]2O[C@@]3(C)CC[C@H]4[C@H](C)CC[C@@H]1[C@@]24OO3` (stereo not given in full): the Activity in series [1], in series [2] and in series [3] was 100% throughout. The compound also gave a logP in series [5] of 6.15.
For `C[C@H]1[C@H](OCCOc2ccc(-c3ccccc3)cc2)O[C@@H]2C[C@@]3(C)CC[C@H]4[C@H](C)CC[C@@H]1[C@@]24OO3`, the Activity is listed as 100% in series [1], 100% in series [2], 100% in series [3] and 44.33% in series [4]. In addition, in series [5], the logP worked out at 6.85.
As for `CCO[C@H]1O[C@@H]2O[C@@]3(C)CC[C@H]4[C@H](C)CC[C@@H]([C@H]1C)[C@@]24OO3` [ARTEMOTIL], the Activity in series [1] and in series [2] was 100% throughout. This compound also came in with a logP in series [5] of 3.84.
In the case of `C[C@H]1[C@@H](OCc2ccc(-c3ccccc3)cc2)O[C@@H]2O[C@@]3(C)CC[C@H]4[C@H](C)CC[C@@H]1[C@@]24OO3`, the Activity in series [1], in series [2], in series [3] and in series [6] was 100% in each case. The logP in series [5] worked out at 6.91.
Consider `C[C@H]1[C@H](OCCOc2ccccc2-c2ccccc2)O[C@@H]2C[C@@]3(C)CC[C@H]4[C@H](C)CC[C@@H]1[C@@]24OO3`, for which the Activity in series [1] is 100%; in series [2], 100%; in series [3] it was 100%; in series [4] it was 64.44%. Also, the logP in series [5] amounted to 6.85.
With `CCO[C@@H]1O[C@@H]2O[C@]3(C)CC[C@H]4[C@H](C)CC[C@@H]([C@H]1C)[C@@]24OO3` [ALPHA-ARTEETHER], the Activity in series [1] and in series [2] was 100% in each case. The same compound returned a logP in series [5] of 3.84.
